Results as given in patent US20260184662A1, “COMPOSITE OF ACID AND SALT, AND PREPARATION METHOD THEREFOR” (NANJING NUTRABUILDING BIO-TECH CO., LTD., priority 2022, published 2026).

Assay: Stability of complexes at 30-80° C.
Type: physicochemical
Details: 30° C.
Excerpt: For R-3-hydroxybutyric acid, potassium R-3-hydroxybutyrate, mixture of R-3-hydroxybutyric acid and potassium R-3-hydroxybutyrate, and R-3-hydroxybutyric acid·potassium R-3-hydroxybutyrate complex of Example 1, […]
For 3-hydroxybutyric acid, potassium 3-hydroxybutyrate, mixture of 3-hydroxybutyric acid and potassium 3-hydroxybutyrate, and 3-hydroxybutyric acid·potassium 3-hydroxybutyrate complex of Example 7, […]
For S-3-hydroxybutyric acid, potassium S-3-hydroxybutyrate, mixture of S-3-hydroxybutyric acid and potassium S-3-hydroxybutyrate, and S-3-hydroxybutyric acid·potassium S-3-hydroxybutyrate complex of Example 13, […]
For R-3-hydroxybutyric acid, calcium R-3-hydroxybutyrate, mixture of R-3-hydroxybutyric acid and calcium R-3-hydroxybutyrate, and R-3-hydroxybutyric acid·calcium R-3-hydroxybutyrate complex of Example 19, […]
For 3-hydroxybutyric acid, calcium 3-hydroxybutyrate, mixture of 3-hydroxybutyric acid and calcium 3-hydroxybutyrate, and 3-hydroxybutyric acid·calcium 3-hydroxybutyrate complex of Example 25, […]
For S-3-hydroxybutyric acid, calcium S-3-hydroxybutyrate, mixture of S-3-hydroxybutyric acid and calcium S-3-hydroxybutyrate, and S-3-hydroxybutyric acid·calcium S-3-hydroxybutyrate complex of Example 31, […]
For R-3-hydroxybutyric acid, magnesium R-3-hydroxybutyrate, mixture of R-3-hydroxybutyric acid and magnesium R-3-hydroxybutyrate, and R-3-hydroxybutyric acid·magnesium R-3-hydroxybutyrate complex of Example 37, […]
For 3-hydroxybutyric acid, magnesium 3-hydroxybutyrate, mixture of 3-hydroxybutyric acid and magnesium 3-hydroxybutyrate, and 3-hydroxybutyric acid·magnesium 3-hydroxybutyrate complex of Example 43, […]
For S-3-hydroxybutyric acid, magnesium S-3-hydroxybutyrate, mixture of S-3-hydroxybutyric acid and magnesium S-3-hydroxybutyrate, and S-3-hydroxybutyric acid·magnesium S-3-hydroxybutyrate complex of Example 49, […]
For R-3-hydroxypentanoic acid, sodium R-3-hydroxypentanoate, mixture of R-3-hydroxypentanoic acid and sodium R-3-hydroxypentanoate, and R-3-hydroxypentanoic acid·sodium R-3-hydroxypentanoate complex of Example 55, […]
For 3-hydroxypentanoic acid, sodium 3-hydroxypentanoate, mixture of 3-hydroxypentanoic acid and sodium 3-hydroxypentanoate, and 3-hydroxypentanoic acid·sodium 3-hydroxypentanoate complex of Example 61, […]
For S-3-hydroxypentanoic acid, sodium S-3-hydroxypentanoate, mixture of S-3-hydroxypentanoic acid and sodium S-3-hydroxypentanoate, and S-3-hydroxypentanoic acid·sodium S-3-hydroxypentanoate complex of Example 67, […]

Compound	Stability
C[C@H](O)CC(=O)O.C[C@H](O)CC(=O)[O-].C[C@H](O)CC(=O)[O-].[Ca+2] [S-3-hydroxybutyric acid·calcium S-3-hydroxybutyrate]	unchanged
C[C@H](O)CC(=O)O.C[C@H](O)CC(=O)[O-].C[C@H](O)CC(=O)[O-].[Mg+2] [S-3-hydroxybutyric acid·magnesium S-3-hydroxybutyrate]	unchanged
C[C@H](O)CC(=O)O.C[C@H](O)CC(=O)[O-].[K+] [S-3-hydroxybutyric acid·potassium S-3-hydroxybutyrate]	unchanged
calcium 3-hydroxybutyrate	unchanged
calcium R-3-hydroxybutyrate	unchanged

Same assay, conditions: 40° C.

Compound	Stability
C[C@H](O)CC(=O)O.C[C@H](O)CC(=O)[O-].C[C@H](O)CC(=O)[O-].[Ca+2] [S-3-hydroxybutyric acid·calcium S-3-hydroxybutyrate]	unchanged
C[C@H](O)CC(=O)O.C[C@H](O)CC(=O)[O-].C[C@H](O)CC(=O)[O-].[Mg+2] [S-3-hydroxybutyric acid·magnesium S-3-hydroxybutyrate]	unchanged
C[C@H](O)CC(=O)O.C[C@H](O)CC(=O)[O-].[K+] [S-3-hydroxybutyric acid·potassium S-3-hydroxybutyrate]	unchanged
calcium 3-hydroxybutyrate	unchanged
calcium R-3-hydroxybutyrate	unchanged

Same assay, conditions: 50° C.

Compound	Stability
C[C@H](O)CC(=O)O.C[C@H](O)CC(=O)[O-].C[C@H](O)CC(=O)[O-].[Ca+2] [S-3-hydroxybutyric acid·calcium S-3-hydroxybutyrate]	unchanged
C[C@H](O)CC(=O)O.C[C@H](O)CC(=O)[O-].C[C@H](O)CC(=O)[O-].[Mg+2] [S-3-hydroxybutyric acid·magnesium S-3-hydroxybutyrate]	unchanged
C[C@H](O)CC(=O)O.C[C@H](O)CC(=O)[O-].[K+] [S-3-hydroxybutyric acid·potassium S-3-hydroxybutyrate]	unchanged

Same assay, conditions: 60° C.

Compound	Stability
C[C@H](O)CC(=O)O.C[C@H](O)CC(=O)[O-].C[C@H](O)CC(=O)[O-].[Ca+2] [S-3-hydroxybutyric acid·calcium S-3-hydroxybutyrate]	unchanged
C[C@H](O)CC(=O)O.C[C@H](O)CC(=O)[O-].C[C@H](O)CC(=O)[O-].[Mg+2] [S-3-hydroxybutyric acid·magnesium S-3-hydroxybutyrate]	unchanged
C[C@H](O)CC(=O)O.C[C@H](O)CC(=O)[O-].[K+] [S-3-hydroxybutyric acid·potassium S-3-hydroxybutyrate]	unchanged
calcium 3-hydroxybutyrate	melted
calcium R-3-hydroxybutyrate	melted

Same assay, conditions: 70° C.

Compound	Stability
calcium 3-hydroxybutyrate	melted
calcium R-3-hydroxybutyrate	melted

Same assay, conditions: 80° C.

Compound	Stability
C[C@H](O)CC(=O)O.C[C@H](O)CC(=O)[O-].C[C@H](O)CC(=O)[O-].[Ca+2] [S-3-hydroxybutyric acid·calcium S-3-hydroxybutyrate]	melted
C[C@H](O)CC(=O)O.C[C@H](O)CC(=O)[O-].C[C@H](O)CC(=O)[O-].[Mg+2] [S-3-hydroxybutyric acid·magnesium S-3-hydroxybutyrate]	melted
C[C@H](O)CC(=O)O.C[C@H](O)CC(=O)[O-].[K+] [S-3-hydroxybutyric acid·potassium S-3-hydroxybutyrate]	melted
calcium 3-hydroxybutyrate	melted
calcium R-3-hydroxybutyrate	melted

Assay: Determination of moisture contents with KF moisture meter at different time points
Type: physicochemical
Details: temperature 23° C., humidity 92.5%, 30 min
Excerpt: For R-3-hydroxybutyric acid, potassium R-3-hydroxybutyrate, mixture of R-3-hydroxybutyric acid and potassium R-3-hydroxybutyrate, and R-3-hydroxybutyric acid·potassium R-3-hydroxybutyrate complex of Example 1, under a certain condition, KF moisture meter was used to determine the moisture contents at different time points.
For 3-hydroxybutyric acid, potassium 3-hydroxybutyrate, mixture of 3-hydroxybutyric acid and potassium 3-hydroxybutyrate, and 3-hydroxybutyric acid·potassium 3-hydroxybutyrate complex of Example 7, under a certain condition, KF moisture meter was used to determine the moisture contents at different time points.
For S-3-hydroxybutyric acid, potassium S-3-hydroxybutyrate, mixture of S-3-hydroxybutyric acid and potassium S-3-hydroxybutyrate, and S-3-hydroxybutyric acid·potassium S-3-hydroxybutyrate complex of Example 13, under a certain condition, KF moisture meter was used to determine the moisture contents at different time points.
For R-3-hydroxybutyric acid, calcium R-3-hydroxybutyrate, mixture of R-3-hydroxybutyric acid and calcium R-3-hydroxybutyrate, and R-3-hydroxybutyric acid·calcium R-3-hydroxybutyrate complex of Example 19, under a certain condition, KF moisture meter was used to determine the moisture contents at different time points.
For 3-hydroxybutyric acid, calcium 3-hydroxybutyrate, mixture of 3-hydroxybutyric acid and calcium 3-hydroxybutyrate, and 3-hydroxybutyric acid·calcium 3-hydroxybutyrate complex of Example 25, under a certain condition, KF moisture meter was used to determine the moisture contents at different time points.
For S-3-hydroxybutyric acid, calcium S-3-hydroxybutyrate, mixture of S-3-hydroxybutyric acid and calcium S-3-hydroxybutyrate, and S-3-hydroxybutyric acid·calcium S-3-hydroxybutyrate complex of Example 31, under a certain condition, KF moisture meter was used to determine the moisture contents at different time points.
For R-3-hydroxybutyric acid, magnesium R-3-hydroxybutyrate, mixture of R-3-hydroxybutyric acid and magnesium R-3-hydroxybutyrate, and R-3-hydroxybutyric acid·magnesium R-3-hydroxybutyrate complex of Example 37, under a certain condition, KF moisture meter was used to determine the moisture contents at different time points.
For 3-hydroxybutyric acid, magnesium 3-hydroxybutyrate, mixture of 3-hydroxybutyric acid and magnesium 3-hydroxybutyrate, and 3-hydroxybutyric acid·magnesium 3-hydroxy butyrate complex of Example 43, under a certain condition, KF moisture meter was used to determine the moisture contents at different time points.
For S-3-hydroxybutyric acid, magnesium S-3-hydroxybutyrate, mixture of S-3-hydroxybutyric acid and magnesium S-3-hydroxybutyrate, and S-3-hydroxybutyric acid·magnesium S-3-hydroxybutyrate complex of Example 49, under a certain condition, KF moisture meter was used to determine the moisture contents at different time points.
For R-3-hydroxypentanoic acid, sodium R-3-hydroxypentanoate, mixture of R-3-hydroxypentanoic acid and sodium R-3-hydroxypentanoate, and R-3-hydroxypentanoic acid·sodium R-3-hydroxypentanoate complex of Example 55, under a certain condition, KF moisture meter was used to determine the moisture contents at different time points.
For 3-hydroxypentanoic acid, sodium 3-hydroxypentanoate, mixture of 3-hydroxypentanoic acid and sodium 3-hydroxypentanoate, and 3-hydroxypentanoic acid·sodium 3-hydroxypentanoate complex of Example 61, under a certain condition, KF moisture meter was used to determine the moisture contents at different time points.
For S-3-hydroxypentanoic acid, sodium S-3-hydroxypentanoate, mixture of S-3-hydroxypentanoic acid and sodium S-3-hydroxypentanoate, and S-3-hydroxypentanoic acid·sodium S-3-hydroxypentanoate complex of Example 67, under a certain condition, KF moisture meter was used to determine the moisture contents at different time points.

Compound	moisture content (%)
C[C@H](O)CC(=O)O.C[C@H](O)CC(=O)[O-].C[C@H](O)CC(=O)[O-].[Ca+2] [S-3-hydroxybutyric acid·calcium S-3-hydroxybutyrate]	0.52%
C[C@H](O)CC(=O)O.C[C@H](O)CC(=O)[O-].C[C@H](O)CC(=O)[O-].[Mg+2] [S-3-hydroxybutyric acid·magnesium S-3-hydroxybutyrate]	0.58%
C[C@H](O)CC(=O)O.C[C@H](O)CC(=O)[O-].[K+] [S-3-hydroxybutyric acid·potassium S-3-hydroxybutyrate]	0.72%
calcium 3-hydroxybutyrate	0.97%
calcium R-3-hydroxybutyrate	0.92%

Same assay, conditions: temperature 23° C., humidity 92.5%, 1 h

Compound	moisture content (%)
C[C@H](O)CC(=O)O.C[C@H](O)CC(=O)[O-].C[C@H](O)CC(=O)[O-].[Ca+2] [S-3-hydroxybutyric acid·calcium S-3-hydroxybutyrate]	0.98%
C[C@H](O)CC(=O)O.C[C@H](O)CC(=O)[O-].C[C@H](O)CC(=O)[O-].[Mg+2] [S-3-hydroxybutyric acid·magnesium S-3-hydroxybutyrate]	0.98%
C[C@H](O)CC(=O)O.C[C@H](O)CC(=O)[O-].[K+] [S-3-hydroxybutyric acid·potassium S-3-hydroxybutyrate]	1.34%
calcium 3-hydroxybutyrate	1.81%
calcium R-3-hydroxybutyrate	1.82%

Same assay, conditions: temperature 23° C., humidity 92.5%, 2 h

Compound	moisture content (%)
C[C@H](O)CC(=O)O.C[C@H](O)CC(=O)[O-].C[C@H](O)CC(=O)[O-].[Ca+2] [S-3-hydroxybutyric acid·calcium S-3-hydroxybutyrate]	1.88%
C[C@H](O)CC(=O)O.C[C@H](O)CC(=O)[O-].C[C@H](O)CC(=O)[O-].[Mg+2] [S-3-hydroxybutyric acid·magnesium S-3-hydroxybutyrate]	1.79%
C[C@H](O)CC(=O)O.C[C@H](O)CC(=O)[O-].[K+] [S-3-hydroxybutyric acid·potassium S-3-hydroxybutyrate]	196%
calcium 3-hydroxybutyrate	2.34%
calcium R-3-hydroxybutyrate	2.43%

Same assay, conditions: temperature 23° C., humidity 92.5%, 4 h

Compound	moisture content (%)
C[C@H](O)CC(=O)O.C[C@H](O)CC(=O)[O-].C[C@H](O)CC(=O)[O-].[Ca+2] [S-3-hydroxybutyric acid·calcium S-3-hydroxybutyrate]	3.05%
C[C@H](O)CC(=O)O.C[C@H](O)CC(=O)[O-].C[C@H](O)CC(=O)[O-].[Mg+2] [S-3-hydroxybutyric acid·magnesium S-3-hydroxybutyrate]	3.16%
C[C@H](O)CC(=O)O.C[C@H](O)CC(=O)[O-].[K+] [S-3-hydroxybutyric acid·potassium S-3-hydroxybutyrate]	3.72%
calcium 3-hydroxybutyrate	4.12%
calcium R-3-hydroxybutyrate	4.22%

Same assay, conditions: temperature 23° C., humidity 92.5%, 6 h

Compound	moisture content (%)
C[C@H](O)CC(=O)O.C[C@H](O)CC(=O)[O-].C[C@H](O)CC(=O)[O-].[Ca+2] [S-3-hydroxybutyric acid·calcium S-3-hydroxybutyrate]	4.47%
C[C@H](O)CC(=O)O.C[C@H](O)CC(=O)[O-].C[C@H](O)CC(=O)[O-].[Mg+2] [S-3-hydroxybutyric acid·magnesium S-3-hydroxybutyrate]	4.58%
C[C@H](O)CC(=O)O.C[C@H](O)CC(=O)[O-].[K+] [S-3-hydroxybutyric acid·potassium S-3-hydroxybutyrate]	5.99%
calcium 3-hydroxybutyrate	5.22%
calcium R-3-hydroxybutyrate	5.35%

Same assay, conditions: temperature 23° C., humidity 92.5%, 7 h

Compound	moisture content (%)
C[C@H](O)CC(=O)O.C[C@H](O)CC(=O)[O-].C[C@H](O)CC(=O)[O-].[Ca+2] [S-3-hydroxybutyric acid·calcium S-3-hydroxybutyrate]	5.22%
C[C@H](O)CC(=O)O.C[C@H](O)CC(=O)[O-].C[C@H](O)CC(=O)[O-].[Mg+2] [S-3-hydroxybutyric acid·magnesium S-3-hydroxybutyrate]	5.64%
C[C@H](O)CC(=O)O.C[C@H](O)CC(=O)[O-].[K+] [S-3-hydroxybutyric acid·potassium S-3-hydroxybutyrate]	6.82%
calcium 3-hydroxybutyrate	6.01%
calcium R-3-hydroxybutyrate	6.04%

Same assay, conditions: temperature 23° C., humidity 92.5%, 11 h

Compound	moisture content (%)
C[C@H](O)CC(=O)O.C[C@H](O)CC(=O)[O-].C[C@H](O)CC(=O)[O-].[Ca+2] [S-3-hydroxybutyric acid·calcium S-3-hydroxybutyrate]	8.41%
C[C@H](O)CC(=O)O.C[C@H](O)CC(=O)[O-].C[C@H](O)CC(=O)[O-].[Mg+2] [S-3-hydroxybutyric acid·magnesium S-3-hydroxybutyrate]	8.86%
C[C@H](O)CC(=O)O.C[C@H](O)CC(=O)[O-].[K+] [S-3-hydroxybutyric acid·potassium S-3-hydroxybutyrate]	9.83%
calcium 3-hydroxybutyrate	10.24%
calcium R-3-hydroxybutyrate	10.44%

Same assay, conditions: temperature 23° C., humidity 92.5%, 22 h

Compound	moisture content (%)
C[C@H](O)CC(=O)O.C[C@H](O)CC(=O)[O-].C[C@H](O)CC(=O)[O-].[Ca+2] [S-3-hydroxybutyric acid·calcium S-3-hydroxybutyrate]	13.98%
C[C@H](O)CC(=O)O.C[C@H](O)CC(=O)[O-].C[C@H](O)CC(=O)[O-].[Mg+2] [S-3-hydroxybutyric acid·magnesium S-3-hydroxybutyrate]	14.74%
C[C@H](O)CC(=O)O.C[C@H](O)CC(=O)[O-].[K+] [S-3-hydroxybutyric acid·potassium S-3-hydroxybutyrate]	18.28%
calcium 3-hydroxybutyrate	17.72%
calcium R-3-hydroxybutyrate	17.68%
